Measurements taken from PubChem BioAssay AID1963838 (Molecular Pharmacology Branch, DTP, NCI, 2024).

Test system: 855422-203-R-J1-PDC complex spheroid viability
Assay: Anticancer human tumor 855422-203-R-J1-PDC patient-derived bladder carcinoma cell line growth inhibition [POLQ]
Conditions: for IC50: curve of first compound; for viability, T/C: stronger effect = lower value
Method in brief: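 Complex spheroid viability model combining PDC tumour cells with endothelial (HUVEC) and MSC stromal cells. Novobiocin, ART-558 or RP6685 were tested singly and in combination with standard and investigational anticancer drugs. Each was titrated in half-log steps from near clinical Cmax, or from 10 microM where Cmax was unknown.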

[1] = second compound 0.0316 µM, first compound 0.0316 µM
[2] = second compound 0.0316 µM, first compound 0.1 µM
[3] = second compound 0.0316 µM, first compound 0.316 µM
[4] = second compound 0.0316 µM, first compound 1 µM
[5] = second compound 0.0316 µM, first compound 3.16 µM
[6] = second compound 0.0316 µM, first compound 10 µM
[7] = second compound 0.1 µM, first compound 0.0316 µM
[8] = second compound 0.1 µM, first compound 0.1 µM
[9] = second compound 0.1 µM, first compound 0.316 µM
[10] = second compound 0.1 µM, first compound 1 µM
[11] = second compound 0.1 µM, first compound 3.16 µM
[12] = second compound 0.1 µM, first compound 10 µM
[13] = second compound 0.316 µM, first compound 0.0316 µM
[14] = second compound 0.316 µM, first compound 0.1 µM
[15] = second compound 0.316 µM, first compound 0.316 µM
[16] = second compound 0.316 µM, first compound 1 µM
[17] = second compound 0.316 µM, first compound 3.16 µM
[18] = second compound 0.316 µM, first compound 10 µM
[19] = second compound 1 µM, first compound 0.0316 µM
[20] = second compound 1 µM, first compound 0.1 µM
[21] = second compound 1 µM, first compound 0.316 µM
[22] = second compound 1 µM, first compound 1 µM
[23] = second compound 1 µM, first compound 3.16 µM
[24] = second compound 1 µM, first compound 10 µM
[25] = second compound 3.16 µM, first compound 0.0316 µM
[26] = second compound 3.16 µM, first compound 0.1 µM
[27] = second compound 3.16 µM, first compound 0.316 µM
[28] = second compound 3.16 µM, first compound 1 µM
[29] = second compound 3.16 µM, first compound 3.16 µM
[30] = second compound 3.16 µM, first compound 10 µM
[31] = second compound 10 µM, first compound 0.0316 µM
[32] = second compound 10 µM, first compound 0.1 µM
[33] = second compound 10 µM, first compound 0.316 µM
[34] = second compound 10 µM, first compound 1 µM
[35] = second compound 10 µM, first compound 3.16 µM
[36] = second compound 10 µM, first compound 10 µM
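Also: spheroids exposed to compounds for seven days before readout.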

SMILES: CC(=O)O[C@H]1C(=O)[C@@]2(C)[C@H]([C@H](OC(=O)c3ccccc3)[C@]3(O)C[C@H](OC(=O)[C@H](O)[C@@H](NC(=O)c4ccccc4)c4ccccc4)C(C)=C1C3(C)C)[C@]1(OC(C)=O)CO[C@@H]1C[C@@H]2O + Cc1cccc(N(C)C(=O)C2C(O)CCN2c2nc(C)cc(C(F)(F)F)c2C#N)c1
- IC50 (second compound 0.0316 µM): < 9.49 nM
- IC50 (second compound 0.1 µM): < 9.49 nM
- IC50 (second compound 0.316 µM): < 9.49 nM
- IC50 (second compound 1 µM): < 9.49 nM
- IC50 (second compound 3.16 µM): < 9.49 nM
- IC50 (second compound 10 µM): < 9.49 nM
- viability, T/C (second compound 0.0316 µM, first compound 0.00949 µM): 13.6%
- viability, T/C (second compound 0.0316 µM, first compound 0.03 µM): 9.26%
- viability, T/C (second compound 0.0316 µM, first compound 0.0949 µM): 11.7%
- viability, T/C (second compound 0.0316 µM, first compound 0.3 µM): 9.48%
- viability, T/C (second compound 0.0316 µM, first compound 0.949 µM): 11.1%
- viability, T/C (second compound 0.0316 µM, first compound 3 µM): 12.6%
- viability, T/C (second compound 0.1 µM, first compound 0.00949 µM): 16.4%
- viability, T/C (second compound 0.1 µM, first compound 0.03 µM): 10.2%
- viability, T/C (second compound 0.1 µM, first compound 0.0949 µM): 9.03%
- viability, T/C (second compound 0.1 µM, first compound 0.3 µM): 7.34%
- viability, T/C (second compound 0.1 µM, first compound 0.949 µM): 9.39%
- viability, T/C (second compound 0.1 µM, first compound 3 µM): 8.97%
- viability, T/C (second compound 0.316 µM, first compound 0.00949 µM): 11.8%
- viability, T/C (second compound 0.316 µM, first compound 0.03 µM): 10.8%
- viability, T/C (second compound 0.316 µM, first compound 0.0949 µM): 8.92%
- viability, T/C (second compound 0.316 µM, first compound 0.3 µM): 9.41%
- viability, T/C (second compound 0.316 µM, first compound 0.949 µM): 10.9%
- viability, T/C (second compound 0.316 µM, first compound 3 µM): 9.92%
- viability, T/C (second compound 1 µM, first compound 0.00949 µM): 9.84%
- viability, T/C (second compound 1 µM, first compound 0.03 µM): 12%
- viability, T/C (second compound 1 µM, first compound 0.0949 µM): 9.05%
- viability, T/C (second compound 1 µM, first compound 0.3 µM): 9.65%
- viability, T/C (second compound 1 µM, first compound 0.949 µM): 10.3%
- viability, T/C (second compound 1 µM, first compound 3 µM): 10.7%
- viability, T/C (second compound 3.16 µM, first compound 0.00949 µM): 11.4%
- viability, T/C (second compound 3.16 µM, first compound 0.03 µM): 11.7%
- viability, T/C (second compound 3.16 µM, first compound 0.0949 µM): 10.1%
- viability, T/C (second compound 3.16 µM, first compound 0.3 µM): 10.2%
- viability, T/C (second compound 3.16 µM, first compound 0.949 µM): 11.5%
- viability, T/C (second compound 3.16 µM, first compound 3 µM): 10.8%
- viability, T/C (second compound 10 µM, first compound 0.00949 µM): 13.1%
- viability, T/C (second compound 10 µM, first compound 0.03 µM): 11.8%
- viability, T/C (second compound 10 µM, first compound 0.0949 µM): 12.8%
- viability, T/C (second compound 10 µM, first compound 0.3 µM): 10.9%
- viability, T/C (second compound 10 µM, first compound 0.949 µM): 12%
- viability, T/C (second compound 10 µM, first compound 3 µM): 11.9%

SMILES: COc1cc(C2c3cc4c(cc3C(OC3OC5COC(C)OC5C(O)C3O)C3COC(=O)C23)OCO4)cc(OC)c1O (stereo unspecified) + Cc1cccc(N(C)C(=O)C2C(O)CCN2c2nc(C)cc(C(F)(F)F)c2C#N)c1
- IC50 (second compound 0.0316 µM): 229 nM
- IC50 (second compound 0.1 µM): 222 nM
- IC50 (second compound 0.316 µM): 205 nM
- IC50 (second compound 1 µM): 189 nM
- IC50 (second compound 3.16 µM): 180 nM
- IC50 (second compound 10 µM): 137 nM
- viability, T/C [1]: 102%
- viability, T/C [2]: 102%
- viability, T/C [3]: 30.1%
- viability, T/C [4]: 11.4%
- viability, T/C [5]: 7.61%
- viability, T/C [6]: 4.64%
- viability, T/C [7]: 98.4%
- viability, T/C [8]: 98.4%
- viability, T/C [9]: 28.7%
- viability, T/C [10]: 12.5%
- viability, T/C [11]: 6.62%
- viability, T/C [12]: 4.51%
- viability, T/C [13]: 111%
- viability, T/C [14]: 89.8%
- viability, T/C [15]: 25.9%
- viability, T/C [16]: 11.4%
- viability, T/C [17]: 8.46%
- viability, T/C [18]: 4.61%
- viability, T/C [19]: 113%
- viability, T/C [20]: 80.2%
- viability, T/C [21]: 24.8%
- viability, T/C [22]: 11.8%
- viability, T/C [23]: 6.9%
- viability, T/C [24]: 5.16%
- viability, T/C [25]: 97.7%
- viability, T/C [26]: 77%
- viability, T/C [27]: 23.5%
- viability, T/C [28]: 12.4%
- viability, T/C [29]: 6.67%
- viability, T/C [30]: 4.34%
- viability, T/C [31]: 97%
- viability, T/C [32]: 60.9%
- viability, T/C [33]: 20.7%
- viability, T/C [34]: 13.5%
- viability, T/C [35]: 6.34%
- viability, T/C [36]: 4.46%

SMILES: O=c1[nH]cc(F)c(=O)[nH]1 + Cc1cccc(N(C)C(=O)C2C(O)CCN2c2nc(C)cc(C(F)(F)F)c2C#N)c1
- IC50 (second compound 0.0316 µM): 605 nM
- IC50 (second compound 0.1 µM): 389 nM
- IC50 (second compound 0.316 µM): 387 nM
- IC50 (second compound 1 µM): 496 nM
- IC50 (second compound 3.16 µM): 537 nM
- IC50 (second compound 10 µM): 554 nM
- viability, T/C [1]: 133%
- viability, T/C [2]: 96.3%
- viability, T/C [3]: 67.1%
- viability, T/C [4]: 36.8%
- viability, T/C [5]: 27.6%
- viability, T/C [6]: 25.7%
- viability, T/C [7]: 109%
- viability, T/C [8]: 128%
- viability, T/C [9]: 54.8%
- viability, T/C [10]: 33.2%
- viability, T/C [11]: 26.3%
- viability, T/C [12]: 24.2%
- viability, T/C [13]: 115%
- viability, T/C [14]: 118%
- viability, T/C [15]: 54.6%
- viability, T/C [16]: 34.5%
- viability, T/C [17]: 27.4%
- viability, T/C [18]: 23.1%
- viability, T/C [19]: 112%
- viability, T/C [20]: 107%
- viability, T/C [21]: 61.1%
- viability, T/C [22]: 33.7%
- viability, T/C [23]: 26.6%
- viability, T/C [24]: 24.1%
- viability, T/C [25]: 109%
- viability, T/C [26]: 99.5%
- viability, T/C [27]: 62.6%
- viability, T/C [28]: 35.2%
- viability, T/C [29]: 29.1%
- viability, T/C [30]: 27%
- viability, T/C [31]: 109%
- viability, T/C [32]: 114%
- viability, T/C [33]: 65.2%
- viability, T/C [34]: 40.1%
- viability, T/C [35]: 32.6%
- viability, T/C [36]: 26.6%
